Reference: patent US20240384268A1, “Oligonucleotides” (Hudson Institute of Medical Research, priority 2021, published 2024)
In the oligonucleotide strings, read from the 5' end, every base follows the letter of its sugar. An asterisk marks phosphorothioate; unmarked linkages are phosphodiester. Other units and linkages are bracketed, terminal groups are in braces. A string of capitals states the bases alone. d = 2'-deoxy (DNA); m = 2'-O-methyl

Target: T1, human TLR9 (Homo sapiens, UniProt Q9NR96)
T1 construct: HA; host or cells: 293XL-hTLR9-HA (HEK293)
T1 sequence (Q9NR96 26-1032): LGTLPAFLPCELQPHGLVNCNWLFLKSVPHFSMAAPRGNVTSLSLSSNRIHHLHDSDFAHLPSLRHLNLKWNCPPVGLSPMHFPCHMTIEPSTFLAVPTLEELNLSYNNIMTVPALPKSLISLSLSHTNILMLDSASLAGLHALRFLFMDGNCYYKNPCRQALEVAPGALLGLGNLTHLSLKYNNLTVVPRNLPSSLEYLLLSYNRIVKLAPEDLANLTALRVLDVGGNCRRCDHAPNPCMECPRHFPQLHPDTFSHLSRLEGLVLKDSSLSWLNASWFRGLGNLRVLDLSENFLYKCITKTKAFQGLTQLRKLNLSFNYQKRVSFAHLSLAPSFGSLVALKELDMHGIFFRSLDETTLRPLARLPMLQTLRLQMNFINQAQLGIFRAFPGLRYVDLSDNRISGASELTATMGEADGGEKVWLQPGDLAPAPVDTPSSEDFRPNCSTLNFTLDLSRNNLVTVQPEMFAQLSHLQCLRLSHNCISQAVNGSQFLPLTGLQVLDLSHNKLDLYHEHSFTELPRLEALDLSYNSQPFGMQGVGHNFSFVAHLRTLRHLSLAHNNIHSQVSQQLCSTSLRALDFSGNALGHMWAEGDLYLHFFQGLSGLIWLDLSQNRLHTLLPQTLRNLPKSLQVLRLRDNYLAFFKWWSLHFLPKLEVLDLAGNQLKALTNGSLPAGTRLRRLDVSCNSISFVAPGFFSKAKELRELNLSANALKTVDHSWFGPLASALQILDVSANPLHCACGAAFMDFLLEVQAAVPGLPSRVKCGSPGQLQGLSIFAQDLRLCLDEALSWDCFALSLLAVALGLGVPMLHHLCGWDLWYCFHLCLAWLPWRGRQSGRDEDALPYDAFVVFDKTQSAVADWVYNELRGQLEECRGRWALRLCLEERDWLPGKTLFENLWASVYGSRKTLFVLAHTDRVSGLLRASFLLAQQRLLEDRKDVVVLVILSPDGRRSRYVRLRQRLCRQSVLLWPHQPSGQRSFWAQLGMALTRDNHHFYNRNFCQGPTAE
Assay: HEK-TLR9 NF-κB-luciferase reporter, ODN2006 stimulation
Assay type: cell-based
Conditions: for TLR9 2 uM: 3mer 2'OMe ASO at 2 uM, HEK-TLR9, value relative to Ligand only = 1.000, NT = 0.000; for TLR9 100 nM (averaged NF-κB-Luciferase level relative to ODN2006 condition): ASO 100 nM; for TLR9 100 nM (averaged NF-κB-Luciferase level relative to ODN2006 condition) / TLR9 500 nM (averaged NF-κB-Luciferase level relative to ODN2006 condition): relative to ODN2006 only, given as fraction; for TLR9 500 nM (averaged NF-κB-Luciferase level relative to ODN2006 condition): ASO 500 nM

Substance | TLR9 2 uM | TLR9 100 nM (averaged NF-κB-Luciferase level relative to ODN2006 condition) | TLR9 500 nM (averaged NF-κB-Luciferase level relative to ODN2006 condition)
mUmGmG (mU*mG*mG) [UGG, 3-mer 2′OMe PS oligo] | 1.137 | – | –
mGmUmG (mG*mU*mG) [GUG, 3-mer 2′OMe PS oligo] | 1.374 | – | –
mAmUmC (mA*mU*mC) [AUC, 3-mer 2′OMe PS oligo] | 0.884 | – | –
dA*dG*dC (DNA AGC; listed as DNA, chemistry not fully specified) | 0.749 | – | –
UCC (mU*mC*mC) | 1.106 | – | –
AUU (mA*mU*mU) | 0.864 | – | –
UUA (mU*mU*mA) | 0.912 | – | –
GTCCCCTGTTGACTGG (antisense; LNA-modified, pattern not given here) [HPRT LNA-489 KL] | – | 0.387 | 0.326
dC*dA*dC (CAC; listed as RNA, chemistry not fully specified) | 0.830 | – | –
dA*dA*dA (DNA AAA; listed as DNA, chemistry not fully specified) | 0.845 | – | –
mGmUmU (mG*mU*mU) [GUU, 3-mer 2′OMe PS oligo] | 1.159 | – | –
mUmCmG (antisense mU*mC*mG) [660-3b] | 0.514 | – | –
dG*dC*dG [GCG] | 1.299 | – | –
CCATCCATGAGGTCCT (antisense; LNA-modified, pattern not given here) [CTNN2B-2545 LNA V1] | – | 1.383 | 0.476
GCCATGCTGGCTCGGA (antisense; LNA-modified, pattern not given here) [CAMSAP1-2584 LNA V1] | – | 0.879 | 0.147
ACU (antisense mA*mC*mU) | 0.996 | – | –
